These results are taken from US11510899B2, “RTX toxin production inhibitor and composition for treating symptom of vibrio infection by using same” (priority 2018, dated 2022).

One data set has as its system INT-407 cells. As to the kind of experiment: In-vitro cytotoxicity, LDH release assay. Conditions: 1 to 500 μM, 3 hours, 5% Triton-X 100 = 100%. In kind it is cell-based, human. The method, then: In order to investigate the in-vitro cytotoxicity of CM2660, human epithelial cells, INT-407 cells were treated with Vibrio vulnificus (control) of MOI 10, and 1 to 500 μM of CM2660 or DMSO. After 3 hours, LDH release assay was performed and cytotoxicity was measured (FIG. 21). […] Cytotoxicity (%) was calculated with respect to the cytotoxicity obtained through treatment of 5% Triton-X 100 as 100%.

Data set [1] has as its system Vibrio vulnificus. The experiment in a line: Hemolytic activity of Vibrio vulnificus against erythrocytes. It counts as cell-based. Particulars: culture supernatant at A600=1.0, different concentrations. The method, then:
Meanwhile, the effect of CM2660 on the hemolytic activity against erythrocytes of Vibrio vulnificus was investigated. For this purpose, Vibrio vulnificus was cultured at 30° C. and treated with CM2660 at different concentrations at A600=0.2. […] The filtered supernatant was concentrated and mixed with erythrocytes diluted to 10% in PBS and cultured at 37° C. Hemolytic activity against erythrocytes was quantified by measuring absorbance at 540 nm (A540). A sample completely dissolved by treatment with 5% Triton X-100 instead of the supernatant was used as a positive control group and a sample using LBS medium was used as a negative control group.
Hemolytic activity was calculated using the following Equation 2, and is shown as a percentage (%) in FIG. 14.

Data set [2] has as its system Vibrio vulnificus. As to the kind of experiment: Growth of Vibrio vulnificus. In kind it is cell-based. Particulars: 20-500 μM CM2660. The method, then:
While culturing at 30° C., the growth of the reporter strain and the degree of bioluminescence thereof were measured in the same manner as in Example 1, and the RLU was calculated. The RLU of the DMSO-treated control group was expressed as 100% HlyU activity. HlyU activity was plotted according to the concentration of the derivative compound, and EC50 (half maximal effective concentration) was calculated using GraphPad Prism 7.0 (GraphPad Software, San Diego, Calif.) (FIG. 6, Table 2).
Therefore, Vibrio vulnificus was treated with various concentrations of CM2660, and the growth of Vibrio vulnificus was observed (FIG. 20).

The next data set relates to hlyA and tlh. As to the kind of experiment: qRT-PCR of hemolytic protein genes in Vibrio cholerae. Conditions: 20 μM, A600=0.5, vs 2% DMSO.
Data set [3] concerns Vibrio vulnificus. The experiment in a line: Mouse infection with Vibrio vulnificus, survival. It counts as in vivo. Particulars: 1.4 mg/kg mixed with bacteria, subcutaneous, ICR female mice, vs DMSO. As to the method:
In order to determine whether or not CM2660 also decreases the virulence of Vibrio vulnificus in vivo using 7-week-old ICR female mice, Vibrio vulnificus cultured at A600=0.5 at 30° C. was prepared. This was mixed with DMSO (10%) or CM2660 (1.4 mg/kg of mouse body weight) and the resulting mixture was subcutaneously injected into the back of mice anesthetized with isoflurane. In addition, only CM2660 was injected subcutaneously in order to determine the in-vivo toxicity of CM2660 (FIG. 22). FIG. 22 is a graph showing the results of observation of the expression of in-vivo toxicity of Vibrio vulnificus after injecting CM2660 into mice.

For data set [4], the system named is Vibrio vulnificus. As to the kind of experiment: Cytotoxicity of Vibrio vulnificus to INT-407 cells (LDH activity). It counts as cell-based. Particulars: MOI 10, 2.5 hours, various concentrations. As to the method:
Vibrio vulnificus cultured to A600=0.5 at 30° C. was treated with various concentrations of CM2660 or DMSO (control group) and infected into INT-407 cells prepared in 96-well assay plates at multiplicity of infection (MOI) of 10 for 2.5 hours. Then, the 96-well assay plates were centrifuged to separate INT-407 cells, and the supernatant and the lactate dehydrogenase (LDH) activity in the supernatant was measured to determine the occurrence of virulence (FIG. 13).

Data set [5] has as its system HlyU. The experiment in a line: Amount of HlyU protein in cells of Vibrio vulnificus. It counts as cell-based. Particulars: various concentrations, added at A600=0.2, harvested at A600=0.5, vs 2% DMSO. As to the method:
In order to determine the mechanism by which the HlyU inhibitor CM2660 inhibited the activity of HlyU, Vibrio vulnificus was cultured at 30° C. and treated with various concentrations of CM2660 at A600=0.2. […] Then, the cell solution was centrifuged at A600=0.5, indicating the time when the intracellular amount of HlyU was maximized, and only the cell portion (pellet) was recovered. The recovered cells were chemically lysed to determine the amount of HlyU in each sample (FIG. 9).

For data set [6], the target named is T1, HlyU (Vibrio vulnificus, UniProt A0A3Q0L222).
T1 sequence (A0A3Q0L222 1-98): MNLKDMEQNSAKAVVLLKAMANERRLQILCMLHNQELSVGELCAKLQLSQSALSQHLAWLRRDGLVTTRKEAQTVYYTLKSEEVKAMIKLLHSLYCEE
As to the kind of experiment: High-throughput screening with E. coli reporter strain (pKK1306 + pZW1608 lux reporter). In kind it is cell-based. An excerpt: Meanwhile, to perform E. coli reporter strain construction and high-throughput screening, a pKK1306 plasmid cloned to induce wild-type hlyU genes by arabinose was constructed. The reporter plasmid is pZW1608, in which the promoter of the VVMO6_00539 gene, expression of which is directly repressed by HlyU, is cloned in front of the bioluminescence operon (lux operon). These two plasmids were simultaneously transformed into E. coli DH5 to construct an E. coli reporter strain (FIG. 1). FIG. 1 is a schematic diagram illustrating the strategy used to screen selective inhibitors of HlyU.
For the screening, approximately 8400 low-molecular-weight compounds were obtained from Korea Compound Bank and used in this experiment. […] When the absorbance at 600 nm (A600) of the culture solution, which was cultured at 37° C., reached 0.5, 100 μl of the culture solution was transferred to a 96-well black plate. […] While culturing at 37° C., the growth and bioluminescence of the reporter strain were measured using an Infinite™ M200 microplate reader (Tecan, Mannedorf, Switzerland). The relative luminescence unit (RLU) was calculated through normalization by division of the measured luminescence value by the absorbance. RLU=luminescence/absorbance [Equation 1] […]

In the case of `O=C(C#Cc1ccccc1)Nc1scc2c1c(=O)oc1ccccc12` [CM2660, N-(4-oxo-4H-thieno[3,4-c]chromen-3-yl)-3-phenylprop-2-ynamide], the “cytotoxicity to INT-407 cells” value with INT-407 cells was “almost no cytotoxicity”. Moreover, in the data set on Vibrio vulnificus [1], the “hemolytic activity against erythrocytes” value was “concentration-dependent decrease”. For the same compound, the “in-vitro growth of Vibrio vulnificus” value in the data set on Vibrio vulnificus [2] is listed as “no significant effect”. Moreover, in the data set on hlyA and tlh, the “hlyA mRNA level” value is recorded as “significantly reduced” and the “tlh mRNA level” value is on record as “significantly reduced”. The “viability (survival) of mice infected with Vibrio vulnificus” value in the data set with Vibrio vulnificus [3] is “significantly higher”. Also, the “virulence (cytotoxicity) occurrence of Vibrio vulnificus” value in the data set on Vibrio vulnificus [4] was “concentration-dependent decrease”. The “amount of HlyU in the cells” value in the data set on HlyU [5] was “no significant difference”. Moreover, the “bioluminescence of E. coli reporter strains” value at HlyU [6] (20 μM compound, 0.0002% arabinose, vs DMSO) is listed as “significantly increased”. The “HlyU inhibitory effect among the seven screened compounds” value at HlyU [6] (Example 1, E. coli and Vibrio reporter strains) is “best effect”.
